The test system of one data set is 5-HT2BR. Also on record: method as in PMID 18439428. Particulars: cited from earlier work.
A short description of data set [1]: Stability of ingredients in gastric pH solution (pH 1.2, 37°C). The class given is physicochemical. Here is the method: Rikkunshito gradually dissolved in acidic solution (pH 1.2) at 37°C, and the concentration of atractylodin after adding 0.25, 0.5, 1, and 2 h was measured by gas chromatography–mass spectrometry.
A short description of data set [2]: Exploratory trial: ingredients in β-glucuronidase (enzyme)-treated urine. It is filed as in vivo, human. Particulars: human, in vivo. Here is the method:
(§1) In the first exploratory trial, 20-mL blood samples were collected from the cutaneous vein in the subjects’ forearm via a blood sampling tube that contained heparin at 0 (preadministration), 0.5, 1, 2, 4, and 8 h after a single oral administration of rikkunshito (Lot E24652). The dose of rikkunshito used in this trial was 7.5 g/day, which is the clinical daily dose, to widely explore rikkunshito-derived ingredients that enter the blood. Along with plasma, urine samples were collected at three points: between dinner and bedtime (preadministration), between 0 and 4 h after administration, and between 4 and 8 h after administration. The blood was immediately centrifuged at 1700 ×g for 10 min to obtain plasma. Plasma and urine fractions were stored at −80°C or lower until analysis.
(§2) For quantification of 30 ingredients other than atractylodin and synephrine, 25 µL of standard solution or methanol was added to 500 µL plasma or urine samples followed by mixing. Atractylenolide III or digoxin (IS) solution (50 μL) was added to the solutions followed by mixing. For urine, 400 µL of blank plasma was added to the solutions. Ammonium acetate solution (100 mM, 100 or 400 µL) was added to the solutions followed by mixing. For enzymatic treatment, plasma and urine samples were incubated with β-glucuronidase (100 units in 100 mM ammonium acetate) for 2 h at 37°C. A solid-phase cartridge (OASIS HLB, 30 mg/1cc, Waters) was conditioned with methanol and 10 mM ammonium acetate solution, and the samples were loaded onto the cartridge. The cartridge was washed water : methanol (9:1, v/v), and 1.5 mL of methanol and 30 µL of propylene glycol were added to the cartridge to elute the analytes. The mixtures were dried at 25°C under a stream of nitrogen gas. Furthermore, 100 μL of 10 mM ammonium acetate : methanol (8:2, v/v) was added to the dried samples followed by mixing and sonication. The solutions were filtered (0.22 µm) and followed by injection into the LC–MS/MS system. […] Those analytical conditions are summarized in S2 Table and S3 Table.

The next data set concerns ghrelin secretion. The conditions noted are these: cited from earlier work.
The next data set deals with 5-HT2CR. Also on record: method as in PMID 18439428. Particulars: cited from earlier work.
Data set [3] is described as follows: Exploratory trial: plasma concentration of rikkunshito ingredients after single oral rikkunshito 7.5 g. It is filed as in vivo. Summed up: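 Plasma and urine levels were measured by LC–MS/MS after one 7.5 g oral dose of rikkunshito. Samples were collected before dosing and at 0.5–8 h for blood, or in 0–4 h and 4–8 h fractions for urine. Synephrine was determined after protein-removal plate cleanup; the other ingredients after β-glucuronidase deconjugation (2 h, 37°C) and SPE.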

A short description of data set [4]: Exploratory trial: ingredients in β-glucuronidase (enzyme)-treated plasma. Particulars: in vivo. It is filed as in vivo, human. Here is the method: as §1, §2
Data set [5] can be described thus: Exploratory trial: amount of rikkunshito ingredients in urine. The class given is in vivo, human. Summed up: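 LC–MS/MS measurement of rikkunshito constituents in urine fractions (pre-dose, 0–4 h, 4–8 h) following one 7.5 g oral dose. Other constituents: enzymatic deglucuronidation at 37 °C for 2 h, then SPE cleanup with atractylenolide III or digoxin as IS; synephrine: erythromycin IS, Ostro plate.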

The test system of data set [6] is cisplatin-induced anorexia model. The conditions noted are these: cited from earlier work.
For data set [7] the following is noted: of the ingredient in the formulation; summary table, reference not given; cited from earlier work.
Data set [8] in a line: Formation of ingredients derived from rikkunshito in formulation, blood, and urine (S11 Table summary). Particulars: after rikkunshito administration, per ingredient in the formulation; for Formation of ingredients: form found in Urine: BQL = below the quantification limit.
[9] abbreviates: oral administration at a dose of 4.0 mg/kg.

Regarding `COc1ccc([C@@H]2CC(=O)c3c(O)cc(O)cc3O2)cc1O` [Hesperetin], the 5-HT2BR inhibitory/antagonistic activity result in the data set with 5-HT2BR is on record as “inhibit”. Also, in data set [1] (0.5 h, pH 1.2), the “Stability in gastric pH solution, Quantitative value” (“Stability in gastric pH solution” for short) is reported as 4.38 ng/mL. The “Stability in gastric pH solution” value in [1] (1 h, pH 1.2) was determined as 4.36 ng/mL. In data set [1] (2 h, pH 1.2), the “Stability in gastric pH solution” value was 3.90 ng/mL. In data set [2], the “Amount in enzyme-treated urine, 0–4 h” value is 7130 ± 9290 ng; the “Amount in enzyme-treated urine, 4–8 h” value is listed as 56750 ± 37530 ng; the “Amount in enzyme-treated urine, Pre” value came out at 4290 ± 7690 ng; the “Increase of urine concentration after β-glucuronidase treatment compared with before treatment” value was “more than 10 fold”. Further, in the data set on ghrelin secretion, the “Known pharmacology activities: ghrelin secretion” value is “Ghrelin secretion promoting activity [14, 15]”. The 5-HT2CR inhibitory activity entry with 5-HT2CR was “inhibit”. Also, the “Plasma concentration at all time points” value in data set [3] (0–8 h, rikkunshito 7.5 g, untreated plasma, BQL = below the quantification limit) was “BQL”. Moreover, in data set [4] (human), the Cmax worked out at 0.799 ng/mL, the concentration at 2 h is 0.227 ± 0.264 ng/mL, the concentration at 4 h came to 0.799 ± 0.408 ng/mL and the concentration at 8 h stood at 0.307 ± 0.289 ng/mL. For the same compound, in [4], the “Plasma concentration in enzyme-treated plasma, 0 h” value is given as “BQL”; the “Plasma concentration in enzyme-treated plasma, 0.5 h” value is given as “BQL”; the “Plasma concentration in enzyme-treated plasma, 1 h” value is reported as “BQL”. Besides, the “Amount in urine, Pre” value in [5] (human, in vivo) stood at 213 ± 390 ng. Also, the “Amount in urine, 0–4 h” value in [5] (human, in vivo, po) came out at 462 ± 418 ng.

`COc1ccc([C@@H]2CC(=O)c3c(O)cc(O[C@@H]4O[C@H](CO[C@@H]5O[C@@H](C)[C@H](O)[C@@H](O)[C@H]5O)[C@@H](O)[C@H](O)[C@H]4O)cc3O2)cc1O` [Hesperidin]: the “Stability in gastric pH solution” value in data set [1] (rikkunshito in acidic solution (pH 1.2) at 37°C, 0.5 h) is reported as 2860 ng/mL; in data set [1] (rikkunshito in acidic solution (pH 1.2) at 37°C, 1 h), 3130 ng/mL; in [1] (rikkunshito in acidic solution (pH 1.2) at 37°C, 2 h) it was 2570 ng/mL. Also, the “Appetite following cisplatin administration” value in data set [6] (setting [9]) is given as “improves decreased appetite”. For the same compound, in [6] (setting [9]), the “Plasma ghrelin concentration following cisplatin administration” value was “inhibits a decrease in plasma ghrelin concentration”. The “Acylated ghrelin level in blood” value in data set [6] (oral administration, cisplatin-induced anorexia model) is given as “suppressed the decrease of the acylated ghrelin level in blood in a concentration-dependent manner”. In addition, the Metabolite by enterobacterium entry in [7] is reported as “Hesperetin”. The “Formation of ingredients: form found in Blood” value in [8] is listed as “Conjugate metabolites of hesperetin”. For the same compound, the “Formation of ingredients: form found in Urine” value in data set [8] is reported as “Hesperidin Hesperetin Conjugate metabolites of hesperetin”. Further, in data set [5] (0–4 h after single oral rikkunshito 7.5 g, mean ± S.D., n = 4), the “Amount in urine, 0–4 h” value is 184 ± 60.5 ng. Besides, the “Amount in urine, 4–8 h” value in data set [5] (4–8 h after single oral rikkunshito 7.5 g, mean ± S.D., n = 4) was 68.6 ± 47.9 ng. Also, the “Amount in urine, Pre” value in data set [5] (preadministration (between dinner and bedtime), mean ± S.D., n = 4) was 28.9 ± 57.8 ng.

With `C[C@@H]1O[C@@H](O[C@H]2[C@H](Oc3cc(O)c4c(c3)O[C@H](c3ccc(O)cc3)CC4=O)O[C@H](CO)[C@@H](O)[C@@H]2O)[C@H](O)[C@H](O)[C@H]1O` [Naringin], the “Stability in gastric pH solution” value in [1] (0.5 h, pH 1.2) is on record as 959 ng/mL. Also, in data set [1] (1 h, pH 1.2), the “Stability in gastric pH solution” value came out at 1060 ng/mL. For the same compound, the “Stability in gastric pH solution” value in data set [1] (2 h, pH 1.2) is reported as 986 ng/mL. Besides, the Metabolite by enterobacterium entry in data set [7] is on record as “Naringenin (portion)”. Also, in [3] (0 h (preadministration), single oral rikkunshito 7.5 g, mean ± S.D., n = 4), the “Plasma concentration, 0 h” value is on record as “BQL”. Also, the “Plasma concentration, 0.5 h” value in [3] (0.5 h after single oral rikkunshito 7.5 g, mean ± S.D., n = 4) is reported as “BQL”. The “Plasma concentration, 1 h” value in data set [3] (1 h after single oral rikkunshito 7.5 g, mean ± S.D., n = 4) amounted to 0.059 ± 0.0684 ng/mL. For the same compound, the “Plasma concentration, 2 h” value in data set [3] (2 h after single oral rikkunshito 7.5 g, mean ± S.D., n = 4) is given as “BQL”. Moreover, in data set [3] (4 h after single oral rikkunshito 7.5 g, mean ± S.D., n = 4), the “Plasma concentration, 4 h” value is reported as “BQL”. Moreover, in data set [3] (8 h after single oral rikkunshito 7.5 g, mean ± S.D., n = 4), the “Plasma concentration, 8 h” value is listed as “BQL”. Also, in [8], the “Formation of ingredients: form found in Blood” value is reported as “Naringin Naringenin Conjugate metabolites of naringenin^a” and the “Formation of ingredients: form found in Urine” value is recorded as “Naringin Naringenin”. In data set [5] (human, in vivo), the “Amount in urine, Pre” value was determined as 70.7 ± 69.2 ng. In data set [5] (human, in vivo, po), the “Amount in urine, 0–4 h” value is 1030 ± 313 ng and the “Amount in urine, 4–8 h” value amounted to 598 ± 329 ng.

(Values after paper PMC4506051, “Pharmacokinetic Profiles of Active Ingredients and Its Metabolites Derived from Rikkunshito, a Ghrelin Enhancer, in Healthy Japanese Volunteers: A Cross-Over, Randomized Study” (PLoS ONE, 2015).)
